Laboratory results from PubChem BioAssay (NCI).
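Where inhibition never reached the appropriate level, the endpoint shown equals the highest concentration tested. Otherwise, values were interpolated linearly from a five-concentration, 48-hour dose response in 96-well plates. TGI: concentration producing complete growth inhibition.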

How the values were obtained:
Experiment in all cases: NCI-60 cell line screen, 48 h
OVCAR-5 ovarian = system: OVCAR-5 ovarian
IGROV1 ovarian = system: IGROV1 ovarian
UACC-62 melanoma = system: UACC-62 melanoma
CCRF-CEM leukemia = system: CCRF-CEM leukemia
OVCAR-3 ovarian = system: OVCAR-3 ovarian
RPMI-8226 leukemia = system: RPMI-8226 leukemia
SNB-19 CNS = system: SNB-19 CNS
LOX IMVI melanoma = system: LOX IMVI melanoma
MDA-N = system: MDA-N
786-0 renal = system: 786-0 renal
T-47D breast = system: T-47D breast
OVCAR-8 ovarian = system: OVCAR-8 ovarian

SMILES	TGI (OVCAR-5 ovarian) [µM]	TGI (IGROV1 ovarian) [µM]	TGI (UACC-62 melanoma) [µM]	TGI (CCRF-CEM leukemia) [µM]	TGI (OVCAR-3 ovarian) [µM]	TGI (RPMI-8226 leukemia) [µM]	TGI (SNB-19 CNS) [µM]	TGI (LOX IMVI melanoma) [µM]	TGI (MDA-N) [µM]	TGI (786-0 renal) [µM]	TGI (T-47D breast) [µM]	TGI (OVCAR-8 ovarian) [µM]
CCn1c(=O)c2nc(SC)sc2n(-c2ccccc2)c1=S	> 100	> 100	97.6	> 100	> 100	> 100	> 100	> 100	> 100	> 100	> 100	> 100
C#C[C@]1(O)CC[C@H]2[C@@H]3CCC4=C/C(=N/OC(=O)c5cccc6cc7ccccc7nc56)CC[C@@H]4[C@H]3CC[C@@]21CC	> 100	> 100	> 100	> 100	> 100	> 100	> 100	> 100	> 100	> 100	> 100	> 100
CSC(SC)=C(C#N)C(=O)Nc1ccc(Cl)cc1	> 100	–	> 100	74.9	> 100	> 100	> 100	62.1	> 100	> 100	85.3	> 100
Cc1[nH]c2c(C)c3c([nH]c4ccc(Cl)cc43)c(C)c2c(=O)c1C	12.4	> 65.5	> 88.3	18.1	18.9	24.9	> 100	15.7	32.6	33	16.8	17.7
NC1=Nc2ncccc2C(=O)NN1	> 10	> 10	> 10	> 10	> 10	> 10	> 10	> 10	> 10	> 10	> 10	> 10
COc1cccc(C2c3cc4c(cc3OC(NNS(=O)(=O)c3ccc(C)cc3)C2C)OCO4)c1O (stereo unspecified)	> 100	> 100	79.7	43.6	57.5	32.4	> 100	> 100	80.1	> 100	> 100	> 100
CNC(=O)OC1/C(C)=C\C(C)C(O)C(OC)CC(C)CC2=C(OC)C(=O)C=C(C2=O)N(C)C(=O)/C(C)=C/C=C\C1OC (stereo unspecified)	22.7	24.6	17.6	4.08	16	13.2	> 75.8	16.6	10.7	18.2	6.14	21.1
COc1ccc(/C=N/n2c(-c3ccccc3)n[nH]c2=O)c(OC)c1	> 100	> 100	> 100	> 100	> 100	> 100	50.1	> 100	> 100	> 100	> 100	> 87.6
CN1N=C(c2ccncc2)OC1c1ccc(C(F)(F)F)cc1 (stereo unspecified)	> 100	> 100	> 100	> 100	> 100	> 100	> 100	> 100	> 100	> 100	> 100	> 100
Cc1ccc([N+](=O)[O-])cc1S(=O)(=O)Nc1ccc(C2=NN(S(=O)(=O)c3cc([N+](=O)[O-])ccc3C)C(c3ccccc3O)C2)cc1 (stereo unspecified)	> 100	> 100	> 100	> 100	> 100	> 100	> 100	> 100	> 100	> 100	> 100	> 100
CCN(CC)C(=O)N[C@@H](CC(C)C)C(=O)NC	> 100	> 100	> 100	> 100	> 100	> 100	> 100	> 100	> 100	> 100	> 100	> 100
CC(C)C1OC(=O)C(Cc2ccccc2)N(C)C(=O)C(C(C)C)OC(=O)C(Cc2ccccc2)N(C)C(=O)C(C(C)C)OC(=O)C(Cc2ccccc2)N(C)C1=O (stereo unspecified)	2.44	2.43	1.98	1.59	1.79	1.31	2.18	2.1	2.1	2.5	3.25	1.97
CC[C@@]1(O)C(=O)OCc2c1cc1n(c2=O)Cc2c-1nc1ccc(N)cc1c2CC[Si](C)(C)C	1	0.469	< 0.0104	< 0.01	0.797	0.0841	11.1	< 0.01	1.62	< 0.0276	20.6	0.818
CCOC(=O)c1cccc(N=NNc2cccc(C(=O)OCC)c2)c1	> 100	> 100	> 100	> 100	93.9	> 100	46.2	> 100	> 100	42.6	> 100	91.8
COc1ccc(Cl)cc1NC(=O)O/N=C(\Cl)C(C)C	34.2	27.1	32.1	> 29.7	18.7	4.61	> 61.7	5.06	26.2	27.1	16.8	32.7
COc1cc2c(cc1C)NC(=O)/C2=C/c1c(Cl)[nH]c2ccccc12	24.4	16.8	14.4	17.2	6.34	> 100	19.2	17.9	3.82	20	34.1	26.4

SMILES	TGI (OVCAR-5 ovarian) [µM]	TGI (IGROV1 ovarian) [µM]	TGI (UACC-62 melanoma) [µM]	TGI (CCRF-CEM leukemia) [µM]	TGI (OVCAR-3 ovarian) [µM]	TGI (RPMI-8226 leukemia) [µM]	TGI (SNB-19 CNS) [µM]	TGI (LOX IMVI melanoma) [µM]	TGI (MDA-N) [µM]	TGI (786-0 renal) [µM]	TGI (T-47D breast) [µM]	TGI (OVCAR-8 ovarian) [µM]
CC(C)C(Sc1nc(N)nc2nc[nH]c12)C(=O)O (stereo unspecified)	> 100	> 100	> 100	> 100	> 100	> 100	> 100	> 100	> 100	> 100	> 100	> 100
N#CC1=C(N)OC2=C(CCCc3ccc([N+](=O)[O-])cc32)C1c1ccc(Cl)cc1 (stereo unspecified)	> 100	> 100	20.2	> 100	29.4	32	> 100	44.5	39.6	23.9	53.9	62.6
c1ccc(-c2cc(-c3ccccc3)nc(-c3ccncc3)c2)cc1	> 100	> 100	> 100	> 100	> 100	> 100	> 100	> 100	> 100	> 100	> 100	> 100
CCCNC(=O)c1cc(OC)c(OC)cc1NC(=O)C12CC3CC(CC(C3)C1)C2	36.6	53.3	–	> 100	35.4	92.7	30	39.7	30.3	30.6	40.4	66.6
CCc1nnc2sc(-c3ccc(-c4ccccc4[N+](=O)[O-])o3)nn12	> 100	> 100	> 100	> 100	> 100	> 100	> 100	> 100	46.1	> 100	> 100	> 100
CC(=O)N(C(=O)CC(=O)N1N=C(C)C(N=Nc2cccc([N+](=O)[O-])c2)C1=O)c1ccc(Cl)cc1 (stereo unspecified)	> 10	> 10	> 10	> 10	> 10	> 10	> 10	> 10	> 10	> 10	> 10	> 10
O=[N+]([O-])C(/C=C(\Cl)[N+](=O)[O-])=C(N1CCOCC1)N1CCOCC1	57.2	> 100	> 100	> 100	34.4	54.6	> 100	> 100	> 100	30.7	52.7	> 100
O=C(OC1C#CCSCC#C/C=C\1)c1ccc2c(c1)C(=O)c1ccccc1C2=O (stereo unspecified)	> 100	> 100	34.2	> 100	> 100	> 100	59.7	> 100	> 100	–	> 100	> 100
COc1ccc(C(CC(=O)c2cccs2)C(=O)c2ccc3c(c2)OCO3)cc1 (stereo unspecified)	–	> 100	> 100	> 100	–	> 100	–	> 100	> 100	–	> 100	> 100
CC(NC(CC12CC3CC(CC(C3)C1)C2)C(N)=O)c1ccccc1 (stereo unspecified)	42.5	> 100	> 100	41.9	26.6	40.5	> 100	30.7	75.6	–	> 100	64.4
O=c1[nH]nc(-c2cccc([N+](=O)[O-])c2)[nH]1	> 100	> 100	> 100	> 100	> 100	> 100	> 100	> 100	> 100	> 100	> 100	> 100
O=C(NCC(O)COc1ccccc1)c1ccccc1O (stereo unspecified)	> 100	> 100	> 100	> 100	> 100	> 100	> 100	> 100	> 100	> 100	> 100	> 100
C=CCN(C(C)=O)c1cc(OCc2ccccc2)c2c(c1)c(C)cn2S(=O)(=O)c1ccccc1	> 100	> 100	> 76.9	> 27.1	> 27.7	> 28.5	> 100	50.1	> 74.7	> 100	> 35	> 100
O=C1c2ccccc2CC12Cc1ccc3c(c1C2=O)CCCC3 (stereo unspecified)	> 100	> 100	> 100	> 100	> 100	> 100	> 100	> 100	> 100	> 100	9.59	> 100
O=C1OCOC2(CCCC2)C1c1ccccc1 (stereo unspecified)	> 100	> 100	> 100	> 100	> 100	> 100	> 100	> 100	> 100	> 100	> 100	> 100
CCOC(=O)/C(C(=O)c1ccc[nH]1)=C1/CCCN1C	> 100	> 100	> 100	> 100	> 100	> 100	> 100	> 100	> 100	> 100	> 100	> 100
